Reference: ChEMBL document CHEMBL3885861, “Open TG-GATES”

Organism: Rattus norvegicus
Experiment: Open TG-GATES - Regimen: Single
Format: toxicity, organism-based, Sprague-Dawley
Set-up: regimen Single, gender Male, age 6 weeks
Details: in vivo, po, 5 mg/kg, route gavage, dose level Middle; for Bas / Eos / Fbg / Hb / Ht / Lym / MCHC / MCV / Mono / Neu / Plat / RBC / Ret / WBC: tissue Blood; for KIDNEY_TOTAL: tissue Kidney; for LIVER: tissue Liver; for ALT / AST / BUN / CRE / Ca / Cl / DBIL / GLC / IP / K / LDH / Na / PL / RALB / TBIL / TC / TP / gamma-GTP: tissue Plasma

## C[C@@H]1C[C@H]2[C@@H]3CCC4=CC(=O)C=C[C@]4(C)[C@@]3(F)[C@@H](O)C[C@]2(C)[C@@]1(O)C(=O)CO [DEXAMETHASONE]
3 h
  TERMINAL_BW: 210 g
  Bas: 0%
  Eos: 0.6%
  Fbg: 235.2 mg/dL
  Hb: 13.2 g/dL
  Ht: 40.3%
  Lym: 71.4%
  MCHC: 32.8%
  MCV: 65 fL
  Mono: 2.4%
  Neu: 25.6%
  Plat: 121.2 x10_4/uL
  RBC: 620.6 x10_4/ul
  Ret: 9.6%
  WBC: 46.5 x10_2/uL
  KIDNEY_TOTAL: 0.6 g
  LIVER: 10.6 g
  ALT: 41 IU/L
  AST: 77.8 IU/L
  BUN: 15 mg/dL
  CRE: 0.4 mg/dL
  Ca: 11.4 mg/dL
  Cl: 101.8 meq/L
  DBIL: 0.014 mg/dL
  GLC: 193.4 mg/dL
  IP: 11.9 mg/dL
  K: 4.1 meq/L
  LDH: 103.8 IU/L
  Na: 141.2 meq/L
  PL: 157.4 mg/dL
  RALB: 4.2 g/dL
  TBIL: 0.046 mg/dL
  TC: 91.2 mg/dL
  TP: 6 g/dL
  gamma-GTP: 0.4 IU/L
6 h
  TERMINAL_BW: 205.5 g
  Bas: 0%
  Eos: 0.6%
  Fbg: 243.6 mg/dL
  Hb: 12.9 g/dL
  Ht: 39.2%
  Lym: 59.4%
  MCHC: 32.8%
  MCV: 64.4 fL
  Mono: 3.6%
  Neu: 36.6%
  Plat: 129.5 x10_4/uL
  RBC: 609.4 x10_4/ul
  Ret: 6.7%
  WBC: 27.3 x10_2/uL
  KIDNEY_TOTAL: 0.6 g
  LIVER: 11.2 g
  ALT: 39.8 IU/L
  AST: 82.6 IU/L
  BUN: 17.2 mg/dL
  CRE: 0.4 mg/dL
  Ca: 11.6 mg/dL
  Cl: 103.2 meq/L
  DBIL: 0.01 mg/dL
  GLC: 223.8 mg/dL
  IP: 7.7 mg/dL
  K: 4.1 meq/L
  LDH: 84.4 IU/L
  Na: 138.8 meq/L
  PL: 153.6 mg/dL
  RALB: 4.5 g/dL
  TBIL: 0.036 mg/dL
  TC: 101.4 mg/dL
  TP: 6.3 g/dL
  gamma-GTP: 0 IU/L
9 h
  TERMINAL_BW: 199.5 g
  Bas: 0%
  Eos: 0.2%
  Fbg: 246 mg/dL
  Hb: 13.6 g/dL
  Ht: 41.5%
  Lym: 37%
  MCHC: 32.7%
  MCV: 64.4 fL
  Mono: 1.4%
  Neu: 61.2%
  Plat: 122.1 x10_4/uL
  RBC: 645.2 x10_4/ul
  Ret: 6%
  WBC: 18.2 x10_2/uL
  KIDNEY_TOTAL: 0.4 g
  LIVER: 10.8 g
  ALT: 39.4 IU/L
  AST: 76.8 IU/L
  BUN: 19.4 mg/dL
  CRE: 0.4 mg/dL
  Ca: 10.9 mg/dL
  Cl: 102 meq/L
  DBIL: 0.008 mg/dL
  GLC: 226 mg/dL
  IP: 7.2 mg/dL
  K: 3.9 meq/L
  LDH: 104.4 IU/L
  Na: 138.6 meq/L
  PL: 179.4 mg/dL
  RALB: 4.6 g/dL
  TBIL: 0.032 mg/dL
  TC: 118 mg/dL
  TP: 6.7 g/dL
  gamma-GTP: 0.8 IU/L
24 h
  TERMINAL_BW: 208.2 g
  Bas: 0%
  Eos: 1%
  Fbg: 232.4 mg/dL
  Hb: 13.4 g/dL
  Ht: 40.4%
  Lym: 46.8%
  MCHC: 33.1%
  MCV: 63.3 fL
  Mono: 9.2%
  Neu: 43.2%
  Plat: 136.7 x10_4/uL
  RBC: 638.4 x10_4/ul
  Ret: 5.4%
  WBC: 47.5 x10_2/uL
  KIDNEY_TOTAL: 0.4 g
  LIVER: 13.2 g
  ALT: 37.2 IU/L
  AST: 83.4 IU/L
  BUN: 17.6 mg/dL
  CRE: 0.4 mg/dL
  Ca: 11.4 mg/dL
  Cl: 99.4 meq/L
  DBIL: 0.022 mg/dL
  GLC: 205 mg/dL
  IP: 6.8 mg/dL
  K: 5.1 meq/L
  LDH: 96 IU/L
  Na: 137.8 meq/L
  PL: 249.2 mg/dL
  RALB: 4.8 g/dL
  TBIL: 0.044 mg/dL
  TC: 119.2 mg/dL
  TP: 6.8 g/dL
